{"source": "patent US20140249191A1", "about": "“Compositions for Controlling Vascularization in Ophthalmological and Dermatological Diseases” (AVIENNE PHARMACEUTICALS GMBH, priority 2011, published 2014)", "key": {"[1]": {"test_system": "endothelial cells of different origin (lung, lymphatics and umbilical)", "assay": "Endothelial cell proliferation assay (direct cell counting)", "type": "cell-based, human", "procedure": "Primary endothelial cell lines (HMVEC-dLyAd—human dermal lymphatic microvascular endothelial cells (EC), dermal blood microvascular EC, HMVEC-LB lung blood microvascular EC, HMVEC-C cardiac human microvascular endothelial cells and MVEC-d—dermal microvascular EC) are from Cambrex Bio Science (Cambrex Bio Science Walkersville Inc., Walkersville, Md., USA). Cell lines are cultured according to the manufacturer's recommendations.\nFor proliferation assays, cells are seeded in 24- to 96-well plates in medium at different concentrations according to the cell type. After 24 hours, the medium is removed and replaced with fresh medium containing increasing concentrations of the compounds. The plates are then incubated for additional 24 to 72 hours, depending on the type of the experiment. Cells are then trypsinized and collected for direct counting. Results are plotted and expressed as means (±SE) for each compound and for a given concentration."}, "[2]": {"test_system": "SAOS-2, Hela, HT29, U87MG and SK-N-DZ cells", "assay": "Cytotoxic activity in cancer cell lines (cell numbers)", "type": "cell-based", "settings": "up to 20 μM; uncoated dishes or coated with vitronectin or fibrinogen", "procedure": "For example, cytotoxic activity of AV-398 was determined in several cancer cell lines (SAOS-2, Hela, HT29, U87MG and SK-N-DZ cells) by assessing cell numbers after treating cell lines with varying concentration of up to 20 μM. Experiments were performed either on uncoated dishes, or on dishes coated with vitronectin or fibrinogen. In addition, tumor cell lines were treated in parallel with echistatin (Gan Z R et al (1998)). […] Similar data were recently published showing cytotoxic activity also only against MDA-MB-435 breast cancer cells (Dayam R et al, 2006)."}, "ocular angiogenesis": {"test_system": "ocular angiogenesis", "assay": "Conjunctival incision ocular angiogenesis model", "type": "in vivo, white pigs", "settings": "pigs, eye drops 100 μg/ml", "description": "AV-398 inhibits ocular angiogenesis in vivo in a widely accepted large animal model. The cornea is an ideal model system for angiogenesis in general, and more specifically for angiogenesis of the eye. The corneal angiogenesis assay is one of the most widely used in vivo assay for the evaluation of factors influencing angiogenesis (Auerbach R, 2003, Thiele W, 2006). One reason that makes the cornea an ideal object for observing neovascularisation is its normal lack of vascularity, maintained by different molecular mechanisms. New vessels can easily be identified by visual inspection alone and quantified with the help of computerized image analysis programs. The effect of an ophthalmological formulation of AV-398 after a conjunctival insult with subsequent angiogenesis in a large animal model was investigated in order to test whether the in vitro data, such as anti-proliferative effects on human endothelial cells, could be reproduced in vivo. Six white pigs weighing 10 to 15 kg were included. First, corneae and conjunctivae were anaesthesized by local application of lidocaine 4%. Then, an incision of 0.5 cm length through the conjunctival tunica sclerae to the substantia propria was placed in parallel to the dorsal corneal limbus at a distance of approximately 2 mm. The animals were treated as follows. […]"}, "[3]": {"test_system": "chorioallantoic membrane vascularisation", "assay": "Chorioallantoic membrane (CAM) assay", "type": "in vivo, chicken embryo", "settings": "applied on CAM day 6 p.f., incubated until day 11 p.f.", "description": "Local Application of AV-398 inhibits in vivo angiogenesis as evidenced by the chicken egg chorioallantoic membrane model. The chorioallantoic membrane (CAM) of the developing chicken embryo serves as an alternative to the traditional mammalian in vivo models, and further corroborates the findings in pigs described above and has clear relevance for the treatment e.g. dermatological indications linked to neoangiogenesis. AV-398 was applied over 5 days.\nEggs were opened on day 6 post fertilization (p.f.). Substances (200 μl respectively) were applied on the CAM on day 6 p.f. and incubated until day 11 p.f. As a vehicle control, 1% DMSO in PBS (phosphate-buffered saline solution pH 7.4) without AV-398 was used. Eggs were inspected daily by stereo-microscopy and pictures were taken (6× magnification)."}, "αvβ3-receptor": {"biological_target": "αvβ3-receptor (Homo sapiens, UniProt P05106+P06756)", "sequence (P06756 31-889 limits assumed)": "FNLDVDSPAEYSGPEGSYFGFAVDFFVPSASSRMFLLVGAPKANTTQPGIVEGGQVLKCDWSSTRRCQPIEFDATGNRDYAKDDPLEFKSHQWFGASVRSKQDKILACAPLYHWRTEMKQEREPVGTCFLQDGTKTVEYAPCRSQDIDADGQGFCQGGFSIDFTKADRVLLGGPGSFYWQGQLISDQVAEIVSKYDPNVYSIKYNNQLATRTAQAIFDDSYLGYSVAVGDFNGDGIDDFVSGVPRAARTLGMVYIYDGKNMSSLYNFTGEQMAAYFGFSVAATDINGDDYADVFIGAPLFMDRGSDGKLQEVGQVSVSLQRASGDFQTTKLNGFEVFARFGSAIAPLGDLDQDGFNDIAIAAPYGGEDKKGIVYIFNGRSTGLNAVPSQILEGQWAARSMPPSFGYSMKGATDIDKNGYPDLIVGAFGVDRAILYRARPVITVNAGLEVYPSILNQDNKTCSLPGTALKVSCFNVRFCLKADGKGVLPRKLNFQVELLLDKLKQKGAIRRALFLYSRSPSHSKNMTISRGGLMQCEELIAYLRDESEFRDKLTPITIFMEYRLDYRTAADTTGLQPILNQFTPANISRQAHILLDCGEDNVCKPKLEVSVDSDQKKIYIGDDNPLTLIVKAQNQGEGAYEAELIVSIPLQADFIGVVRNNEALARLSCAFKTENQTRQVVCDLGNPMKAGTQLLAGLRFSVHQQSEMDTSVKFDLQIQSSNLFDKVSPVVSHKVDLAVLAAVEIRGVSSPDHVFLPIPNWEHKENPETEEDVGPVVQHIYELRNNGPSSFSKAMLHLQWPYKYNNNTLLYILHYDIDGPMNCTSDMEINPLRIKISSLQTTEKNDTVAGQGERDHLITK", "sequence (P06756 891-1048 partner limits assumed)": "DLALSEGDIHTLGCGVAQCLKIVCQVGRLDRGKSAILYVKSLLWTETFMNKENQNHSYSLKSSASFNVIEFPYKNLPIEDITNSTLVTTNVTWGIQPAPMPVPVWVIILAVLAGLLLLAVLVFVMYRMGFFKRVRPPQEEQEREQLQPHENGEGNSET", "sequence (P05106 27-788)": "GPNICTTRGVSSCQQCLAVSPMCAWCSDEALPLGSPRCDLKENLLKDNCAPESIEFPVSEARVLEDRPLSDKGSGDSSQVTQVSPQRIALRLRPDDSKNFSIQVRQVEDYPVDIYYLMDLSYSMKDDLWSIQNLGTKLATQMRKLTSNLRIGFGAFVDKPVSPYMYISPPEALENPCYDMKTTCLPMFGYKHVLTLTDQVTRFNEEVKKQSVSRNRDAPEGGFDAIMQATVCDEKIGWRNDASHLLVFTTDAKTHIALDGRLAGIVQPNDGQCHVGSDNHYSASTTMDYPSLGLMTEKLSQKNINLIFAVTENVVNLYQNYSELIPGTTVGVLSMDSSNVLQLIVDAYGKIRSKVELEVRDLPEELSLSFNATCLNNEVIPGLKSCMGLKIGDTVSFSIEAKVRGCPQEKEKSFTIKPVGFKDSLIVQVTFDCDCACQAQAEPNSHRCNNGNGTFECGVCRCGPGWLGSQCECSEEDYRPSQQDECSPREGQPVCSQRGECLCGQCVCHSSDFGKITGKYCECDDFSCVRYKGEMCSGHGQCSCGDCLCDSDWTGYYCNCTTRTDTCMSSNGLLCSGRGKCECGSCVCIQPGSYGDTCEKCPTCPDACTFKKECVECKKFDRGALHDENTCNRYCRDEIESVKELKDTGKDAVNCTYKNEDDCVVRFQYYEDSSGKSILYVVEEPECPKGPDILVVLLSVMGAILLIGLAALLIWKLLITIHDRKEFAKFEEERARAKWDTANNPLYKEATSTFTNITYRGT", "settings": "Dayam et al, 2006; cited from earlier work"}}, "note": "Entries after “also recorded” stand apart in the source; their conditions may differ.", "data": [{"smiles": "CCOc1cc(C=C2S/C(=N/c3ccc(C(=O)O)cc3)N(C)C2=O)ccc1O", "note": "(stereo in doubt) [AV-398, 4-({5-[(E)-1-(3-ethoxy-4-hydroxyphenyl)methylidene]-3-methyl-4-oxo-1,3-thiazolan-2-yliden}amino)benzoic acid]", "values": [{"measurement": "antiproliferative effect against endothelial cells", "setting": "[1]", "value": "strong antiproliferative effect"}, {"measurement": "effects on cancer cell lines (cytotoxic activity)", "setting": "[2]", "value": "no meanigful effects"}, {"measurement": "bleeding surrounding the incision immediately after treatment", "setting": "ocular angiogenesis", "value": "marked diffuse bleeding"}, {"measurement": "neoangiogenesis on treated conjunctivae versus control-treated eyes", "setting": "ocular angiogenesis; topical after incision", "value": "diminished neoangiogenesis"}, {"measurement": "vascularisation of chicken embryo CAM versus vehicle control", "setting": "[3]", "value": "markedly decreased vascularisation; also recorded: significant reduction of vascularisation"}, {"measurement": "avβ3 binding affinity", "setting": "αvβ3-receptor", "value": 240, "unit": "nM"}]}]}
